1 molecule from patent publication US5126488A, “2β,19-methyleneamino bridged steroids as aromatase inhibitors” (Merrell Dow Pharmaceuticals Inc., priority 1990, dated 1992) can be followed below.

The target of the assay is T1, aromatase (Homo sapiens, UniProt P11511).
T1 construct: 700 μl of aromatase preparation, usually 300-800 μg of microsomal protein per ml of assay buffer; from tissue; host or cells: microsomes
T1 sequence (P11511 1-503): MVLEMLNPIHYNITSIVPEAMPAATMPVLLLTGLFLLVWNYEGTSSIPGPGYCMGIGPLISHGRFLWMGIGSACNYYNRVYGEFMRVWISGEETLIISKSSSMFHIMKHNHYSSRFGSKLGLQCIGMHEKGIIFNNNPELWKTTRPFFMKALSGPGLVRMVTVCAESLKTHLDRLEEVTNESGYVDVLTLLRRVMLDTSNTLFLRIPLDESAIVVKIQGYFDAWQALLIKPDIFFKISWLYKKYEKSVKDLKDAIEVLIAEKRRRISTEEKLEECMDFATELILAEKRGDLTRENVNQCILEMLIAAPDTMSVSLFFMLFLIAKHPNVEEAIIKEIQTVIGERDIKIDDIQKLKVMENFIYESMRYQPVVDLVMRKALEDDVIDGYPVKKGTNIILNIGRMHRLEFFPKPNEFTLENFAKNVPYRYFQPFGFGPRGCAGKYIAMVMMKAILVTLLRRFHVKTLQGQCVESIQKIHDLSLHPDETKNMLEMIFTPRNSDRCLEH
Kind of assay: time-dependent aromatase inhibition assay (preincubation, Kitz-Wilson analysis). The class given is biochemical. The note with it: Kitz-Wilson plots. The method, then: In this assay, the inhibitor is preincubated with enzyme prior to assaying for activity in the presence of high substrate levels. A time-related decrease in enzyme activity can be indicative of a preferred mode of inhibition.
In the time-dependent assay, an amount of the enzyme inhibitor in 100 μl of the assay buffer described above which will provide assay concentrations which are usually between 1 nM and 10 μm are added to 35 ml centrifuge tubes containing 600 μl of the NADPH generating system. The preincubation is started by the addition of 700 μl of aromatase preparation, usually 300-800 μg of microsomal protein per ml of assay buffer. These preparations are mixed using a vortex mixer and incubated for 0, 5, 10 or 20 minutes at 25° C. […] The amount of radioactivity in the aqueous fraction is determined by scintillation procedures. The enzymatic activity for each concentration of inhibitor at each time period of preincubation is calculated as a percent of the "0" minute vehicle control arbitrarily set at 100%. Therefore, the present enzyme inhibition is expressed as a percentage: (100 percent minus percent enzyme activity with inhibitor present).
Enzyme kinetic analysis utilized Kitz-Wilson plots for time-dependent assays. […] The pseudo first-order rate constant for enzyme inactivation (kcat) and the half-time of inactivation (.tau.50) of infinite inhibitor concentrations were determined. […]

Structures are written as SMILES.

For the molecule `C[C@]12CC[C@H]3[C@@H](CCC4=CC(=O)[C@H]5CNC[C@]43C5)[C@@H]1CCC2=O` [2β,19-(methyleneamino)androst-4-ene-3,17-dione], where the note is “at infinite inhibitor concentrations”, the “.tau.50 (half-time of inactivation)” value is reported as 2.66 min. Moreover, the KI (inactivation) (inhibitor concentration giving half-maximal rate of enzyme inactivation, microsomal aromatase preparation, preincubation 0-20 min at 25° C., read-out: Ki (apparent Ki of inactivation)) is 259 nM.
